Laboratory results taken from US20070232575A1, “Treatment of Pulmonary Artery Hypertension with Dhea, Dheas, Dhea Analogs, or Dhea Derivatives” (priority 2004, published 2007).
Values joined by “and” are separate entries in the source; they are usually repeats but may differ in a detail not shown here. Equal values may be shown once. “Also recorded” adds a separate entry of the source.

Columns and labels:
[1] = system: chronic hypoxic-pulmonary artery hypertension (CH-PAH); assay: Mean pulmonary arterial pressure (PAP) in chronic hypoxic (CH-PAH) rat model; type: in vivo; settings: for reversal of PA hypertension: in contrast to testosterone, estradiol, pregnenolone, protocol not restated; for effect on PAP, i.v. administration: 3 mg/kg, same intravascular protocol as for DHEA, CH-DHEA rats (so in the source)
Experimental: To study the mechanisms of PAH and its possible treatments, an animal model was utilized. The placement of rats in a hypobaric chamber for 7 to 21 days induced chronic hypoxia, resulting in CH-PAH, a useful model system for studying mammalian PAH.
The rat model experiments were performed as follows. Adult male Wistar rats (220-240 g) were randomized into five groups. […] Intravascular administration was performed via the catheter inserted in the right jugular vein.

PASMCs from CH rats = assay: In vitro DHEA treatment of PASMCs, resting [Ca2+]i, with K channel blockers and pathway inhibitors; type: cell-based, rat; settings: for effect on the DHEA-induced [Ca2+]i decrease: DHEA plus blocker/inhibitor: IbTx, agitoxin-2, ODQ 10 μM, genistein 1 μM, 476485 1 μM, DTT
Experimental: The heart and lungs were removed and intrapulmonary arteries (IPAs) (150-300 μm of internal diameter) were then dissected. The adventitial and intimal layers were removed. For contraction experiments, rings (3 mm in length) were prepared.
As mentioned earlier, Ca^2+ is thought to play an important role in the response to chronic hypoxia. To measure the effects of DHEA on [Ca^2+]i of individual PASMCs, a [Ca^2+]i-sensitive fluorophore, indo-1 (Calbiochem, San Diego, Calif.), was employed. […] The recording system included a Nikon Diaphot inverted microscope fitted with epifluorescence.
To further examine how DHEA functions to decrease the [Ca^2+]i in PASMCs, the following experiment was performed.

## C[C@]12CC[C@H](O)C[C@@H]1CC[C@@H]1[C@@H]2CC[C@]2(C)C(=O)CC[C@@H]12 [3β-hydroxy-5α-androstan-17-one]
[1]
  reversal of PA hypertension: did reverse PA hypertension

## Nc1ccncc1 [4-AP, 4-amino-pyridine]
PASMCs from CH rats; combined IbTx 100 nM and 4-AP 1 mM
  block of the DHEA-induced [Ca2+]i decrease: 100%
PASMCs from CH rats; combined presence of 4-AP and IbTx
  effect on the DHEA effect on resting [Ca2+]i: almost totally abolished

## C[C@]12CC[C@H]3[C@@H](CC=C4C[C@@H](O)CC[C@@]43C)[C@@H]1CC[C@@H]2O [5-androsten-3β,17β-diol]
[1]
  reversal of PA hypertension: did reverse PA hypertension

## C[C@]12CC[C@H]3[C@@H](CCC4=CC(=O)CC[C@@]43C)[C@@H]1CC[C@@H]2O [testosterone]
[1]
  effect on PAP, i.v. administration: did not reveal any effect

## O[C@@H](CS)[C@@H](O)CS [DTT]
PASMCs from CH rats
  effect on the DHEA-induced [Ca2+]i decrease: totally inhibited; also recorded: suppressed; also recorded: inhibits the effect of DHEA
PASMCs from CH rats; DTT with DHEA, PASMCs
  elevation of the resting [Ca2+]i: 23 nM

## O=c1onc2cnc3ccccc3n12 [ODQ, 1H-[1,2,4]oxadiazolol[4,3,-a]quinoxalin-1-one]
PASMCs from CH rats
  effect on the DHEA-induced [Ca2+]i decrease: did not alter; also recorded: no effect

## O=c1c(-c2ccc(O)cc2)coc2cc(O)cc(O)c12 [genistein, Genistein]
PASMCs from CH rats
  effect on the DHEA-induced [Ca2+]i decrease: did not alter; also recorded: no effect

## CC(=O)[C@H]1CC[C@H]2[C@@H]3CC=C4C[C@@H](O)CC[C@]4(C)[C@H]3CC[C@]12C [pregnenolone]
[1]
  effect on PAP, i.v. administration: did not reveal any effect

## C[C@H]1CC[C@@]2(C)C(=CC[C@@H]3[C@@H]2CC[C@]2(C)C(=O)CC[C@@H]32)C1 [3βmethyl-5-androsten-17-one]
[1]
  reversal of PA hypertension: did reverse PA hypertension

## agitoxin-2
PASMCs from CH rats
  effect on the DHEA-induced [Ca2+]i decrease: no effect

## iberiotoxin (QFTDVDCSVSKECWSVCKDLFGVDRGKCMGKKCRCYQ; UniProt P24663 1-37, looked up) [IbTx]
PASMCs from CH rats; DHEA 100 μM and IbTx 100 nM, 10 min, PASMCs from CH rats
  inhibition of the DHEA-induced change of resting [Ca2+]i: 62% and 65%
PASMCs from CH rats
  effect on the DHEA-induced [Ca2+]i decrease: blocked
